Reference: US20250134869A1, “Pyrrolo[2,3-d]pyrimidinyl, Pyrrolo[2,3-b]pyrazinyl and Pyrrolo[2,3-d]pyridinyl Acryla-mides” (Pfizer Inc, priority 2021, published 2025)
Like-named read-outs stand apart in the source and are kept apart here.

Key:
[1] = test system: IL-15 induced STAT5 phosphorylation in human whole blood lymphocytes; assay: HWB IL-15 induced STAT5 phosphorylation assay; type: cell-based; conditions: Lymphocyte, IL-15 stimulated, read-out: HWB-IL15-pSTAT5 IC50
Method: HWB IL-15 Induced STAT5 Phosphorylation Assay
After mixing and incubating for 45 minutes at 37° C., 5 μl D-PBS (unstimulated control) or 20× stocks of 5 μl human IL-15 (final concentration is 50 ng/ml) were added, and mixed three times. After incubating 15 minutes at 37° C., 1× Lyse/Fix Buffer (BD Phosflow 5× Lyse/Fix Buffer) was added to all wells at 1000 μl/well, then incubated for 20 minutes at 37° C. and spun 5 mins at 1200 rpm. […] Following incubating at 4° C. over night, all the samples were transferred to 96-well polypropylene U-bottom plate, and checked by flow cytometry gated on total lymphocytes.

JAK3 enzyme = JAK3 enzyme (Homo sapiens (Human), UniProt P52333); assay: JAK Caliper Enzyme Assay at 4 μM or 1 mM ATP; type: biochemical
[2] = test system: IL-15 induced P-STAT5 in human PBMC; assay: PBMC IL-15 induced P-STAT5; type: cell-based; conditions: human PBMC, IL-15 stimulated, read-out: PBMC IL15-pSTAT5 IC50
Method: PBMC IL-15 Induced P-STAT5
Frozen human PBMC (200-250 million cells/vial) was thawed at 37° C. The cells were transferred to 10 mL warm medium in a 50-mL conical tube, and centrifuged at 1,200 RPM at room temperature for 5 min. The supernatant was aspirated. […] After adding 47 ml D-PBS (37° C.) to PBMC/FBS suspension, centrifuging at 1,200 RPM at room temperature for 5 min, and aspirating the supernatant, the cells were resuspended in 20 mL warm RPMI medium. Ninety μL of cell suspension were pipetted per well in a 96-well, deep-well, V-bottom plate, and the plate was incubated at 37° C. for 30 min. […] After adding 0.8 mL staining buffer per well, the plates were centrifuged at 1,200 RPM (Beckman GS-6R or Sorvall Legend) at room temperature for 5 min, and again the supernatant was aspirated using a 8-channel or 12-channel manifold. The plate was vortexed, and 0.35 mL 90% methanol/10% H2O (−20° C.) was added per well, and the plate incubated on ice for 20 min. After again adding 0.8 mL staining buffer per well, the plates were centrifuged at 1,200 RPM (Beckman GS-6R or Sorvall Legend) at room temperature for 5 min, and again the supernatant was aspirated using a 8-channel or 12-channel manifold, and then 0.8 mL Staining buffer was added per well. After once again adding 0.8 mL staining buffer per well, the plates were centrifuged at 1,200 RPM (Beckman GS-6R or Sorvall Legend) at room temperature for 5 min, and again the supernatant was aspirated using a 8-channel or 12-channel manifold. […] Samples of 250 μL/well were transferred to a 96-well U-bottom plate, and the FACS analysis was performed gating on total lymphocytes. Samples were analyzed using a BD Calibur™ or BD FACSCanto™ flow cytometer equipped with the BD High Throughput Sampler.

[3] = read-out: JAK3 (4 μM ATP) IC50, 4 μM ATP
[4] = read-out: JAK3 (1 mM ATP) IC50, 1 mM ATP

JAK3 enzyme, sequence (P52333 whole entry, species assumed): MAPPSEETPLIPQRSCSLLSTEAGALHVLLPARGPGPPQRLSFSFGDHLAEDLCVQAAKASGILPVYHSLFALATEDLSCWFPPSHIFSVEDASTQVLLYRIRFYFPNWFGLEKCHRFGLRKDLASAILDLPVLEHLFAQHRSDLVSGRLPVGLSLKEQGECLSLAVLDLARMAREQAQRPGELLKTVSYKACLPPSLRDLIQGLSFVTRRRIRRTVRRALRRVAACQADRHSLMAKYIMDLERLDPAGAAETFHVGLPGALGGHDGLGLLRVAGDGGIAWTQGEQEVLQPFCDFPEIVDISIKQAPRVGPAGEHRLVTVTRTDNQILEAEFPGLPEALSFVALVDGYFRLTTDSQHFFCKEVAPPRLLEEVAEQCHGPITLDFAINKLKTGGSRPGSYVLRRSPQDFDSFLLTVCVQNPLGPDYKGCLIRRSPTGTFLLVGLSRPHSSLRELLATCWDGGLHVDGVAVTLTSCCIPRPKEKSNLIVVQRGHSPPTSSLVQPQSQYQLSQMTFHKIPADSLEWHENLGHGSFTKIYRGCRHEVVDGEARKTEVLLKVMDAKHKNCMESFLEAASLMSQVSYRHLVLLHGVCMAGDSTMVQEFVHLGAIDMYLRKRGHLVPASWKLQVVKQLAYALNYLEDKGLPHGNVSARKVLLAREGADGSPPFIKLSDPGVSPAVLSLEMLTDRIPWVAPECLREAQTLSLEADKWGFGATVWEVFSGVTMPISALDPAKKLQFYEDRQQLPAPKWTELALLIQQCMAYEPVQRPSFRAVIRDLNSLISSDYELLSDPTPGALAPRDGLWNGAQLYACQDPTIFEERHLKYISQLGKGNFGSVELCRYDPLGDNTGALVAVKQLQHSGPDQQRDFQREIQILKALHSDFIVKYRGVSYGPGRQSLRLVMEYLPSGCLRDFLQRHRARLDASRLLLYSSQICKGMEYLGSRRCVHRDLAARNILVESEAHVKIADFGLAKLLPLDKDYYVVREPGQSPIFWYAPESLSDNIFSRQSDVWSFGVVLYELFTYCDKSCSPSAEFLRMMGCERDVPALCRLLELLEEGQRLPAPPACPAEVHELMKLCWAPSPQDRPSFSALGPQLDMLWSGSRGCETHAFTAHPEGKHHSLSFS

SMILES | IC50 [1] [nM] | IC50 (JAK3 enzyme; [3]) [nM] | IC50 (JAK3 enzyme; [4]) [nM] | IC50 ([2]; Homo sapiens, PBMC) [nM] | IC50 [2] [nM]
C=CC(=O)N1C[C@H](C)C[C@@H](Nc2ncnc3[nH]ccc23)C1 (racemic) [Example 65, Rac-1-((3R,5R)-3-((7H-Pyrrolo[2,3-d]pyrimidin-4-yl)amino)-5-methylpiperidin-1-yl)prop-2-en-1-one] | > 10000 |  |  |  | 
C=CC(=O)N1CC[C@]2(C)CCN(c3ncnc4[nH]ccc34)[C@@H]2C1 [Example 59, 1-((3aS,7aS)-3a-Methyl-1-(7H-pyrrolo[2,3-d]pyrimidin-4-yl)hexahydro-1H-pyrrolo[2,3-c]pyridin-6 (2H)-yl)prop-2-en-1-one] |  | 3.2 | 403 | > 2550 | 
C=CC(=O)N1C[C@H](OC)C[C@@H](N(C)c2ncnc3[nH]ccc23)C1 [Example 78, 1-{(3R,5R)-3-Methoxy-5-[methyl(7H-pyrrolo[2,3-d]pyrimidin-4-yl)amino]piperidin-1-yl}prop-2-en-1-one] |  | 387 | > 10000 |  | > 10000
CN(C)C/C=C/C(=O)N1CC[C@@H]2CCN(c3ncnc4[nH]ccc34)[C@@H]2C1 [Example 82, (2E)-4-(dimethylamino)-1-[(3aS,7aS)-1-(7H-pyrrolo[2,3-d]pyrimidin-4-yl)octahydro-6H-pyrrolo[2,3-c]pyrdin-6-yl]but-2-en-1-one] |  | 57.2 | 5290 |  | > 7300
C=CC(=O)N1CC[C@@H]2CCN(c3ncnc4[nH]cc(CCOC)c34)[C@@H]2C1 [Example 89, 1-{(3aS,7aS)-1-[5-(2-Methoxyethyl)-7H-pyrrolo[2,3-d]pyrimidin-4-yl]octahydro-6H-pyrrolo[2,3-c]pyridin-6-yl}prop-2-en-1-one] |  | 35.2 | 3940 |  | > 6160
C=C(CO)C(=O)N1CCC[C@@H](Nc2ncnc3[nH]ccc23)C1 [Example 93, 2-(hydroxymethyl)-1-[(3R)-3-(7H-pyrrolo[2,3-d]pyrimidin-4-ylamino)piperidin-1-yl]prop-2-en-1-one] |  | 703 | > 10000 |  | > 10000
C=C(COC)C(=O)N1CCC[C@@H](Nc2ncnc3[nH]ccc23)C1 [Example 94, 2-(methoxymethyl)-1-[(3R)-3-(7H-pyrrolo[2,3-d]pyrimidin-4-ylamino)piperidin-1-yl]prop-2-en-1-one] |  | 802 | > 10000 |  | > 10000
C=CC(=O)N1C[C@@H](Nc2ncnc3[nH]ccc23)CC[C@H]1CO [Example 117, 1-[(2S,5S)-2-(Hydroxymethyl)-5-(7H-pyrrolo[2,3-d]pyrimidin-4-ylamino)piperidin-1-yl]prop-2-en-1-one] | > 10000 |  |  | > 10000 | 
C=CC(=O)c1c[nH]c2ncnc(N[C@H]3CN(C(=O)C=C)CC[C@H]3F)c12 [Example 120, 1-(4-{[(3S,4R)-1-Acryloyl-4-fluoropiperidin-3-yl]amino}-7H-pyrrolo[2,3-d]pyrimidin-5-yl)prop-2-en-1-one] |  | 692 | > 10 |  | > 10000
C=CC(=O)N1CC2CCN(c3cnc4[nH]cc(C(=O)NC(C)C)c4n3)C2C1 (stereo not drawn) [Example 178, 2-(5-acryloylhexahydropyrrolo[3,4-b]pyrrol-1(2H)-yl)-N-(propan-2-yl)-5H-pyrrolo[2,3-b]pyrazine-7-carboxamide] | 2560 | 1.1 | 102 | 208 | 
C=CC(=O)N1CC(O)C(Nc2cnc3[nH]cc(C(=O)NC(C)C)c3n2)C1 (stereo not drawn) [Example 179, 2-[(1-acryloyl-4-hydroxypyrrolidin-3-yl)amino]-N-(propan-2-yl)-5H-pyrrolo[2,3-b]pyrazine-7-carboxamide] | > 10000 | 2.3 | 309 |  | > 10000
C=CC(=O)N[C@H]1C[C@@H](Nc2cnc3[nH]cc(C(=O)NC(C)C)c3n2)C1 [Example 184, 2-{[cis-3-(acryloylamino)cyclobutyl]amino}-N-(propan-2-yl)-5H-pyrrolo[2,3-b]pyrazine-7-carboxamide] | > 10000 | 1.5 | 210 |  | 
C=CC(=O)N1C[C@@H]2C(Nc3cnc4[nH]cc(C(=O)NC(C)C)c4n3)[C@@H]2C1 (stereo partly drawn) [Example 189, 2-{[(1R,5S,6s)-3-acryloyl-3-azabicyclo[3.1.0]hex-6-yl]amino}-N-(propan-2-yl)-5H-pyrrolo[2,3-b]pyrazine-7-carboxamide] | > 10000 | 1.1 | 198 |  | 
C=CC(=O)N1CCC(Nc2cnc3[nH]cc(-c4ccc(C)nc4)c3n2)CC1 [Example 199, 1-(4-{[7-(6-methylpyridin-3-yl)-5H-pyrrolo[2,3-b]pyrazin-2-yl]amino}piperidin-1-yl)prop-2-en-1-one] | > 10000 | 1.2 | 101 |  | 
C=CC(=O)N1CCC(Nc2cnc3[nH]cc(-c4cncc(C#N)c4)c3n2)CC1 [Example 206, 5-{2-[(1-acryloylpiperidin-4-yl)amino]-5H-pyrrolo[2,3-b]pyrazin-7-yl}pyridine-3-carbonitrile] | > 10000 | 0.1 | 19.6 |  | 
C=CC(=O)N1CCC(Oc2cnc3[nH]cc(-c4cncc(F)c4)c3n2)CC1 [Example 213, 1-(4-{[7-(5-fluoropyridin-3-yl)-5H-pyrrolo[2,3-b]pyrazin-2-yl]oxy}piperidin-1-yl)prop-2-en-1-one] | > 10000 | 0.8 | 69.4 |  | 
C=CC(=O)N1CCC(Oc2cnc3[nH]cc(-c4cccnc4F)c3n2)CC1 [Example 217, 1-(4-{[7-(2-fluoropyridin-3-yl)-5H-pyrrolo[2,3-b]pyrazin-2-yl]oxy}piperidin-1-yl)prop-2-en-1-one] | > 10000 | 0.7 | 42.4 |  | 
C=CC(=O)N1CCC(Oc2cnc3[nH]cc(-c4ccnc(C)c4)c3n2)CC1 [Example 220, 1-(4-{[7-(2-methylpyridin-4-yl)-5H-pyrrolo[2,3-b]pyrazin-2-yl]oxy}piperidin-1-yl)prop-2-en-1-one] | > 10000 | 0.8 | 70.4 |  | 
C=CC(=O)N1CCC(Oc2cnc3[nH]cc(-c4cncc(C#N)c4)c3n2)CC1 [Example 225, 5-{2-[(1-acryloylpiperidin-4-yl)oxy]-5H-pyrrolo[2,3-b]pyrazin-7-yl}pyridine-3-carbonitrile] |  | 1.4 | 120 |  | 2910
C=CC(=O)N1CCC(Oc2cnc3[nH]cc(-c4ccc(F)nc4)c3n2)CC1 [Example 226, 1-(4-{[7-(6-fluoropyridin-3-yl)-5H-pyrrolo[2,3-b]pyrazin-2-yl]oxy}piperidin-1-yl)prop-2-en-1-one] |  | 1 | 91 |  | 699
C=CC(=O)N1CCC(Nc2cnc3[nH]cc(C(=O)NCCCCCCCCC#N)c3n2)CC1 [Example 260, 2-[(1-acryloylpiperidin-4-yl)amino]-N-(8-cyanooctyl)-5H-pyrrolo[2,3-b]pyrazine-7-carboxamide] | > 10000 |  |  |  | 
C=CC(=O)N1CCC(Nc2cnc3[nH]cc(C(=O)N[C@H]4CCC[C@H](CC#N)C4)c3n2)CC1 [Example 262, 2-[(1-acryloylpiperidin-4-yl)amino]-N-[(1S,3S)-3-(cyanomethyl)cyclohexyl]-5H-pyrrolo[2,3-b]pyrazine-7-carboxamide] | > 10000 |  |  |  | 
C=CC(=O)N1CC[C@@H](Nc2cnc3[nH]ccc3n2)C1 [Example 335, (R)-1-(3-((5H-Pyrrolo[2,3-b]pyrazin-2-yl)amino)pyrrolidin-1-yl)prop-2-en-1-one] |  | 622 |  |  | > 10000
C=CC(=O)N1CC[C@H](Nc2cnc3[nH]ccc3n2)C1 [Example 336, (S)-1-(3-((5H-Pyrrolo[2,3-b]pyrazin-2-yl)amino)pyrrolidin-1-yl)prop-2-en-1-one] |  | 30.6 | 3400 |  | > 10000
C=CC(=O)N1CCC(Oc2cnc3[nH]cc(C(=O)NC(C)(C)C)c3n2)CC1 [Example 338, 2-((1-Acryloylpiperidin-4-yl)oxy)-N-(tert-butyl)-5H-pyrrolo[2,3-b]pyrazine-7-carboxamide] | > 10000 | 0.4 | 115 |  | 
